Measured values taken from PubChem BioAssay (NCI).
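Method: 48-hour compound exposure of cells in 96-well plates, five concentrations, linear interpolation of endpoints. Definition used: TGI = concentration required for complete inhibition of growth.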

Each compound was assayed on HL-60(TB) leukemia (assay: inhibition of tumour cell growth, NCI panel, 48 h).

First: COC(=O)/C(=C/c1ccc(OC)cc1)C(C(=O)O)=C1CCCC1
Second: N#C/C(=C\c1ccc2ccccc2c1)C(=O)c1ccccc1
The TGI of the first is higher: over 100 µM for the first, 71.9 µM for the second.

Work on `O=C1N=C2Sc3ccc4ccccc4c3N2C1=O` yielded a TGI of over 100 µM.

Each compound was assayed on HOP-18 NSCLC (assay: inhibition of tumour cell growth, NCI panel, 48 h).

`CN(C)C(=S)/N=c1\sn(C)/c(=N\C(=S)N(C)C)n1C` and `COC(=O)/C(C#N)=C1\N=NNN1c1ccc(OC)cc1` cannot be ordered by TGI: over 100 µM for the first, over 100 µM for the second.

`COC(=O)C1CCCC2(C1)OCCO2` (stereo not drawn) and `N#C/C(=C\c1ccc2ccccc2c1)C(=O)c1ccccc1` cannot be ordered by TGI: over 100 µM for the first, over 100 µM for the second.

Compound `O=C1N=C2Sc3ccc4ccccc4c3N2C1=O` has a TGI of 33 µM.

Each compound was assayed on HOP-62 NSCLC (assay: inhibition of tumour cell growth, NCI panel, 48 h).

`CN(C)C(=S)/N=c1\sn(C)/c(=N\C(=S)N(C)C)n1C` and `COC(=O)/C(=C/c1ccc(OC)cc1)C(C(=O)O)=C1CCCC1` cannot be ordered by TGI: over 100 µM for the first, over 100 µM for the second.

Compared with `COC(=O)C1CCCC2(C1)OCCO2` (stereo not drawn), `N#C/C(=C\c1ccc2ccccc2c1)C(=O)c1ccccc1` is lower in TGI: over 100 µM for the first, 51.4 µM for the second.

`O=C1N=C2Sc3ccc4ccccc4c3N2C1=O` was tested, and the TGI was 39.8 µM.

Each compound was assayed on HOP-92 NSCLC (assay: inhibition of tumour cell growth, NCI panel, 48 h).

Compared with `O=C(CC1C(=O)Nc2ccccc2S1=O)Nc1cc(Cl)ccc1Cl` (stereo not drawn), `O=C1N=C2Sc3ccc4ccccc4c3N2C1=O` is lower in TGI: over 100 µM for the first, 30.6 µM for the second.

`CN(C)C(=S)/N=c1\sn(C)/c(=N\C(=S)N(C)C)n1C` and `COC(=O)/C(C#N)=C1\N=NNN1c1ccc(OC)cc1` cannot be ordered by TGI: over 100 µM for the first, over 100 µM for the second.

`COC(=O)C1CCCC2(C1)OCCO2` (stereo not drawn) and `COC(=O)/C(=C/c1ccc(OC)cc1)C(C(=O)O)=C1CCCC1` cannot be ordered by TGI: over 100 µM for the first, over 100 µM for the second.

These compounds were tested on HS 578T breast (assay: inhibition of tumour cell growth, NCI panel, 48 h).

Compound `N#C/C(=C\c1ccc2ccccc2c1)C(=O)c1ccccc1` has a TGI of 77.6 µM.

These compounds were tested on HT29 colon (assay: inhibition of tumour cell growth, NCI panel, 48 h).

Compared with `O=C(CC1C(=O)Nc2ccccc2S1=O)Nc1cc(Cl)ccc1Cl` (stereo not drawn), `O=C1N=C2Sc3ccc4ccccc4c3N2C1=O` is lower in TGI: over 100 µM for the first, 96.7 µM for the second.

`CN(C)C(=S)/N=c1\sn(C)/c(=N\C(=S)N(C)C)n1C` and `COC(=O)/C(C#N)=C1\N=NNN1c1ccc(OC)cc1` cannot be ordered by TGI: over 100 µM for the first, over 100 µM for the second.

`COC(=O)C1CCCC2(C1)OCCO2` (stereo not drawn) and `COC(=O)/C(=C/c1ccc(OC)cc1)C(C(=O)O)=C1CCCC1` cannot be ordered by TGI: over 100 µM for the first, over 100 µM for the second.

`N#C/C(=C\c1ccc2ccccc2c1)C(=O)c1ccccc1` was tested, and the TGI was over 100 µM.

The compounds below were run on IGROV1 ovarian (assay: inhibition of tumour cell growth, NCI panel, 48 h).

First: O=C(CC1C(=O)Nc2ccccc2S1=O)Nc1cc(Cl)ccc1Cl (stereo not drawn)
Second: O=C1N=C2Sc3ccc4ccccc4c3N2C1=O
The TGI of the first is higher: over 100 µM for the first, 57.1 µM for the second.

`CN(C)C(=S)/N=c1\sn(C)/c(=N\C(=S)N(C)C)n1C` and `COC(=O)/C(C#N)=C1\N=NNN1c1ccc(OC)cc1` cannot be ordered by TGI: over 100 µM for the first, over 100 µM for the second.

`COC(=O)C1CCCC2(C1)OCCO2` (stereo not drawn) and `COC(=O)/C(=C/c1ccc(OC)cc1)C(C(=O)O)=C1CCCC1` cannot be ordered by TGI: over 100 µM for the first, over 100 µM for the second.

With `N#C/C(=C\c1ccc2ccccc2c1)C(=O)c1ccccc1` the TGI was over 100 µM.

Each compound was assayed on K-562 leukemia (assay: inhibition of tumour cell growth, NCI panel, 48 h).

`O=C(CC1C(=O)Nc2ccccc2S1=O)Nc1cc(Cl)ccc1Cl` (stereo not drawn) and `O=C1N=C2Sc3ccc4ccccc4c3N2C1=O` cannot be ordered by TGI: over 100 µM for the first, over 100 µM for the second.

`CN(C)C(=S)/N=c1\sn(C)/c(=N\C(=S)N(C)C)n1C` and `COC(=O)/C(C#N)=C1\N=NNN1c1ccc(OC)cc1` cannot be ordered by TGI: over 100 µM for the first, over 100 µM for the second.

`COC(=O)C1CCCC2(C1)OCCO2` (stereo not drawn) and `COC(=O)/C(=C/c1ccc(OC)cc1)C(C(=O)O)=C1CCCC1` cannot be ordered by TGI: over 100 µM for the first, over 100 µM for the second.

Work on `N#C/C(=C\c1ccc2ccccc2c1)C(=O)c1ccccc1` yielded a TGI of 99.2 µM.

What follows are compounds tested on KM12 colon (assay: inhibition of tumour cell growth, NCI panel, 48 h).

`CN(C)C(=S)/N=c1\sn(C)/c(=N\C(=S)N(C)C)n1C` and `COC(=O)/C(C#N)=C1\N=NNN1c1ccc(OC)cc1` cannot be ordered by TGI: over 100 µM for the first, over 100 µM for the second.

`COC(=O)C1CCCC2(C1)OCCO2` (stereo not drawn) and `COC(=O)/C(=C/c1ccc(OC)cc1)C(C(=O)O)=C1CCCC1` cannot be ordered by TGI: over 100 µM for the first, over 100 µM for the second.

`N#C/C(=C\c1ccc2ccccc2c1)C(=O)c1ccccc1` and `O=C1N=C2Sc3ccc4ccccc4c3N2C1=O` cannot be ordered by TGI: over 100 µM for the first, over 100 µM for the second.

What follows are compounds tested on KM20L2 colon (assay: inhibition of tumour cell growth, NCI panel, 48 h).

Going from `O=C(CC1C(=O)Nc2ccccc2S1=O)Nc1cc(Cl)ccc1Cl` (stereo not drawn) to `O=C1N=C2Sc3ccc4ccccc4c3N2C1=O`, the TGI falls from over 100 µM to 64.4 µM.

`CN(C)C(=S)/N=c1\sn(C)/c(=N\C(=S)N(C)C)n1C` and `COC(=O)/C(=C/c1ccc(OC)cc1)C(C(=O)O)=C1CCCC1` cannot be ordered by TGI: over 100 µM for the first, over 100 µM for the second.

`COC(=O)C1CCCC2(C1)OCCO2` (stereo not drawn) and `N#C/C(=C\c1ccc2ccccc2c1)C(=O)c1ccccc1` cannot be ordered by TGI: over 100 µM for the first, over 100 µM for the second.

What follows are compounds tested on LOX IMVI melanoma (assay: inhibition of tumour cell growth, NCI panel, 48 h).

First: O=C(CC1C(=O)Nc2ccccc2S1=O)Nc1cc(Cl)ccc1Cl (stereo not drawn)
Second: O=C1N=C2Sc3ccc4ccccc4c3N2C1=O
The TGI of the first is higher: over 100 µM for the first, 38.2 µM for the second.

`CN(C)C(=S)/N=c1\sn(C)/c(=N\C(=S)N(C)C)n1C` and `COC(=O)/C(C#N)=C1\N=NNN1c1ccc(OC)cc1` cannot be ordered by TGI: over 100 µM for the first, over 100 µM for the second.

`COC(=O)C1CCCC2(C1)OCCO2` (stereo not drawn) and `COC(=O)/C(=C/c1ccc(OC)cc1)C(C(=O)O)=C1CCCC1` cannot be ordered by TGI: over 100 µM for the first, over 100 µM for the second.

In the case of `N#C/C(=C\c1ccc2ccccc2c1)C(=O)c1ccccc1`, the TGI is reported as 52 µM.

What follows are compounds tested on LXFL 529 NSCLC (assay: inhibition of tumour cell growth, NCI panel, 48 h).

Compared with `O=C(CC1C(=O)Nc2ccccc2S1=O)Nc1cc(Cl)ccc1Cl` (stereo not drawn), `O=C1N=C2Sc3ccc4ccccc4c3N2C1=O` is lower in TGI: over 100 µM for the first, 37.7 µM for the second.

`CN(C)C(=S)/N=c1\sn(C)/c(=N\C(=S)N(C)C)n1C` and `COC(=O)/C(C#N)=C1\N=NNN1c1ccc(OC)cc1` cannot be ordered by TGI: over 100 µM for the first, over 100 µM for the second.

`COC(=O)C1CCCC2(C1)OCCO2` (stereo not drawn) and `COC(=O)/C(=C/c1ccc(OC)cc1)C(C(=O)O)=C1CCCC1` cannot be ordered by TGI: over 100 µM for the first, over 100 µM for the second.

`N#C/C(=C\c1ccc2ccccc2c1)C(=O)c1ccccc1` gave a TGI of over 100 µM.

Each compound was assayed on M14 melanoma (assay: inhibition of tumour cell growth, NCI panel, 48 h).

Compared with `O=C(CC1C(=O)Nc2ccccc2S1=O)Nc1cc(Cl)ccc1Cl` (stereo not drawn), `O=C1N=C2Sc3ccc4ccccc4c3N2C1=O` is lower in TGI: over 100 µM for the first, 73.8 µM for the second.

`CN(C)C(=S)/N=c1\sn(C)/c(=N\C(=S)N(C)C)n1C` and `COC(=O)/C(C#N)=C1\N=NNN1c1ccc(OC)cc1` cannot be ordered by TGI: over 100 µM for the first, over 100 µM for the second.

`COC(=O)C1CCCC2(C1)OCCO2` (stereo not drawn) and `COC(=O)/C(=C/c1ccc(OC)cc1)C(C(=O)O)=C1CCCC1` cannot be ordered by TGI: over 100 µM for the first, over 100 µM for the second.

`N#C/C(=C\c1ccc2ccccc2c1)C(=O)c1ccccc1` showed a TGI of over 88.4 µM.

What follows are compounds tested on M19-MEL melanoma (assay: inhibition of tumour cell growth, NCI panel, 48 h).

`O=C(CC1C(=O)Nc2ccccc2S1=O)Nc1cc(Cl)ccc1Cl` (stereo not drawn) and `O=C1N=C2Sc3ccc4ccccc4c3N2C1=O` cannot be ordered by TGI: over 100 µM for the first, over 100 µM for the second.

Going from `CN(C)C(=S)/N=c1\sn(C)/c(=N\C(=S)N(C)C)n1C` to `COC(=O)/C(C#N)=C1\N=NNN1c1ccc(OC)cc1`, the TGI rises from 69.7 µM to over 100 µM.

`COC(=O)C1CCCC2(C1)OCCO2` (stereo not drawn) and `COC(=O)/C(=C/c1ccc(OC)cc1)C(C(=O)O)=C1CCCC1` cannot be ordered by TGI: over 100 µM for the first, over 100 µM for the second.

For `N#C/C(=C\c1ccc2ccccc2c1)C(=O)c1ccccc1`, the TGI was over 100 µM.

Each compound was assayed on MALME-3M melanoma (assay: inhibition of tumour cell growth, NCI panel, 48 h).

Compared with `O=C(CC1C(=O)Nc2ccccc2S1=O)Nc1cc(Cl)ccc1Cl` (stereo not drawn), `O=C1N=C2Sc3ccc4ccccc4c3N2C1=O` is lower in TGI: over 100 µM for the first, 47.9 µM for the second.

Going from `CN(C)C(=S)/N=c1\sn(C)/c(=N\C(=S)N(C)C)n1C` to `COC(=O)/C(C#N)=C1\N=NNN1c1ccc(OC)cc1`, the TGI rises from 75.7 µM to over 100 µM.

`COC(=O)C1CCCC2(C1)OCCO2` (stereo not drawn) and `N#C/C(=C\c1ccc2ccccc2c1)C(=O)c1ccccc1` cannot be ordered by TGI: over 100 µM for the first, over 100 µM for the second.

The compounds below were run on MCF7 breast (assay: inhibition of tumour cell growth, NCI panel, 48 h).

With `N#C/C(=C\c1ccc2ccccc2c1)C(=O)c1ccccc1` the TGI was over 100 µM.

The compounds below were run on MDA-MB-435 (assay: inhibition of tumour cell growth, NCI panel, 48 h).

With `N#C/C(=C\c1ccc2ccccc2c1)C(=O)c1ccccc1` the TGI was 43.2 µM.

Each compound was assayed on MDA-N (assay: inhibition of tumour cell growth, NCI panel, 48 h).

In the case of `N#C/C(=C\c1ccc2ccccc2c1)C(=O)c1ccccc1`, the TGI is reported as over 100 µM.

These compounds were tested on MOLT-4 leukemia (assay: inhibition of tumour cell growth, NCI panel, 48 h).

`O=C(CC1C(=O)Nc2ccccc2S1=O)Nc1cc(Cl)ccc1Cl` (stereo not drawn) and `O=C1N=C2Sc3ccc4ccccc4c3N2C1=O` cannot be ordered by TGI: over 100 µM for the first, over 100 µM for the second.

`CN(C)C(=S)/N=c1\sn(C)/c(=N\C(=S)N(C)C)n1C` and `COC(=O)/C(C#N)=C1\N=NNN1c1ccc(OC)cc1` cannot be ordered by TGI: over 100 µM for the first, over 100 µM for the second.

`COC(=O)C1CCCC2(C1)OCCO2` (stereo not drawn) and `COC(=O)/C(=C/c1ccc(OC)cc1)C(C(=O)O)=C1CCCC1` cannot be ordered by TGI: over 100 µM for the first, over 100 µM for the second.

`N#C/C(=C\c1ccc2ccccc2c1)C(=O)c1ccccc1` showed a TGI of 68.8 µM.

What follows are compounds tested on NCI-H226 lung (assay: inhibition of tumour cell growth, NCI panel, 48 h).

For `O=C(CC1C(=O)Nc2ccccc2S1=O)Nc1cc(Cl)ccc1Cl` (stereo not drawn), the TGI was over 100 µM.
